Read-outs that look alike come from different tables or passages of the source.
Tests used:
[1] = 37°C
Experimental: In this procedure, 27.5 µL of a 5 x 10^-3 M solution of E2-CDS in acetonitrile was added to 2.75 mL of a solution containing 1 x 10^-4 M Fe(CN)6^-4, 0.06 M K^+, 0.001 M Fe(CN)6^-3. All solutions were made using water which had been boiled for 30 minutes and cooled while a stream of pyrogallol-scrubbed nitrogen passed through it. The E2-CDS was introduced via a syringe to the solution which was maintained at 37°C in a thermostated cell holder and contained in an anaerobic screw-top cuvette. […] For a given concentration of ferricyanide ions (6 x 10^-4 to 8 x 10^-3 M), the rate of disappearance of the E2-CDS was determined. This was done by calculating the decrease in the absorbance band at 360 nm (± 10 nm) subtracted from base line absorbance (500 ± 10 nm). A plot of the 1n [Abs] versus time gave a slope for the pseudo-first-order rate constant. This was done at several different ferricyanide ion concentrations. The obtained first-order rate constants were then plotted as a function of ferricyanide ion concentration generating a slope from which the second order rate constant (k0 s^-1 M^-1) was obtained. In examining the effect of 2-hydroxypropyl-β-cyclodextrin on the rate of E2-CDS oxidation, solutions containing the HPCD as well as those ions present in the first phase of the experiment were prepared. The second order constant was derived for each cyclodextrin concentration and a plot developed.

[2] = Lung and brain concentrations in male rats after i.v. E2-CDS in DMSO or as HPCD complex (HPLC with pre-column enrichment); type: in vivo, Sprague-Dawley rats
From the text: The loss of sensitivity resulting from the dilution step in the procedure optimal for pretreatment of biological samples (see sample preparation without extraction) could be compensated for by developing an HPLC system that allows injection of large volumes. A suitable HPLC-method which has been described in the literature [Roth et al, J. Chromatogr. 222: 13-22 (1981)] is based on alternating pre-column sample enrichment. The procedure used herein was as follows: The sample containing the drug is injected with a first pump A, delivering pure water, onto one of two pre-columns, which are alternatingly connected with the injection system by two pneumatically driven valves. Provided a certain lipophilicity, the drug is retained and concentrated on the pre-column, while accompanying water soluble-co-products like proteins are being washed out as long as water is pumped through the pre-column. This allows the direct injection of body fluids. After a certain enrichment time (6 and 8 minutes), simultaneous rotation of the two valves is induced, causing pre-column 1, where the injected drug has been absorbed, to be switched to the solvent stream of the second pump, B. Also, at this point, the recording integrator is started. Pump B delivers the mobile phase, necessary for separation and chromatography, and backflushes the sample from pre-column 1 onto the analytical column. Parallel to this process, pre-column 2 is switched to the water stream of pump A so that a sample can be injected and enriched while the previous one is being eluted (alternating mode). Volumes up to 1800 µL can be injected due to the concentration effect of the enrichment phase.
This system was applicable to the quantification of E2, E2-CDS and E2-Quat. The mobile phase for E2-CDS was: Acetonitrile/water 80:20 at a flow rate of 1.8 mL/minute. Optimal peak shape and retention time for E2 and E2-Ouat were obtained with pump B delivering a mixture of acetonitrile/water 42:58 which contained 0.025 M/L sodium salt of 1-octanesulfonic acid and 0.003 M/L tetrabutylammonium phosphate. […]

[3] = 15 mg/kg in DMSO relative to 5 mg/kg as complex with HPCD in water, i.v., within the first hour

CN1C=CCC(C(=O)O[C@H]2CC[C@H]3[C@@H]4CCc5cc(O)ccc5[C@H]4CC[C@]23C)=C1 [Example E2-CDS, 3-Hydroxy-17β-[(1-methyl-1,4-dihydropyridin-3-yl)carbonyl]oxyestra-1,3,5(10)-triene]
inhibition of second order rate of oxidation ([1]; 0.5% w/v cyclodextrin): 42% | inhibition of second order rate of oxidation ([1]; 1.0% w/v cyclodextrin): 60% | inhibition of second order rate of oxidation ([1]; 2% cyclodextrin): 81% | reduction in the second order rate of oxidation ([1]; 5-20% cyclodextrin): approximately 90% | initial lung concentrations of E2-CDS, corrected for dose [2, 3]: more than ten-fold | initial lung concentrations of E2-Quat, corrected for dose [2, 3]: more than ten-fold | brain levels of E2-Quat, corrected for dose ([2]; after 1 hour, HPCD complex in water compared to DMSO): not significantly different

— patent EP0335545B2, “Pharmaceutical formulations for parenteral use” (UNIVERSITY OF FLORIDA, priority 1988, dated 1989)
